Test results as given in ChEMBL document CHEMBL5055685, “Discovery of the First Potent IDO1/IDO2 Dual Inhibitors: A Promising Strategy for Cancer Immunotherapy” (J Med Chem, 2021).
pIC50: −log10 of the molar value. Activity calls are given as the source filed them. The rule behind the calls is not given here.

Assays:
[1] = Protein binding in human plasma by equilibrium dialysis; type: ADME, cell-free; conditions: read-out: PPB (converted)
[2] = target: Serine/threonine-protein kinase 25 (Homo sapiens) (UniProt O00506); test: Inhibition of STK25 (unknown origin) at 1 uM
[3] = target: Tyrosine-protein kinase FRK (Homo sapiens) (UniProt P42685); test: Inhibition of FRK (unknown origin) at 1 uM
[4] = target: Ephrin type-A receptor 3 (Homo sapiens) (UniProt P29320); test: Inhibition of EPHA3 (unknown origin) at 1 uM
[5] = target: Serine/threonine-protein kinase SIK1 (Homo sapiens) (UniProt P57059); test: Inhibition of SIK1 (unknown origin) at 1 uM
[6] = target: Activin receptor type-1B (Homo sapiens) (UniProt P36896); test: Inhibition of ALK4 (unknown origin) at 1 uM
[7] = target: Indoleamine 2,3-dioxygenase 1 (Homo sapiens, UniProt P14902); test: Inhibition of IDO1 in IFNgamma-stimulated human HeLa cells assessed as reduction in kynurenine formation measured after 48 hrs by spectrophotometry
[8] = target: Mitogen-activated protein kinase kinase kinase 3 (Homo sapiens) (UniProt Q99759); test: Inhibition of MEKK3 (unknown origin) at 1 uM
[9] = target: Ephrin type-A receptor 5 (Homo sapiens) (UniProt P54756); test: Inhibition of EPHA5 (unknown origin) at 1 uM
[10] = target: Myosin light chain kinase 2, skeletal/cardiac muscle (Homo sapiens) (UniProt Q9H1R3); test: Inhibition of MLCK2 (unknown origin) at 1 uM
[11] = target: Tyrosine-protein kinase Srms (Homo sapiens) (UniProt Q9H3Y6); test: Inhibition of SRMS (unknown origin) at 1 uM
[12] = Metabolic stability in monkey liver microsomes assessed as rate constant; type: ADME, Macaca mulatta, Microsome; conditions: rhesus monkey
[13] = target: Serine/threonine-protein kinase Nek5 (Homo sapiens) (UniProt Q6P3R8); test: Inhibition of NEK5 (unknown origin) at 1 uM
Serine/threonine-protein kinase Nek5 (Homo sapiens), sequence (Q6P3R8 whole entry): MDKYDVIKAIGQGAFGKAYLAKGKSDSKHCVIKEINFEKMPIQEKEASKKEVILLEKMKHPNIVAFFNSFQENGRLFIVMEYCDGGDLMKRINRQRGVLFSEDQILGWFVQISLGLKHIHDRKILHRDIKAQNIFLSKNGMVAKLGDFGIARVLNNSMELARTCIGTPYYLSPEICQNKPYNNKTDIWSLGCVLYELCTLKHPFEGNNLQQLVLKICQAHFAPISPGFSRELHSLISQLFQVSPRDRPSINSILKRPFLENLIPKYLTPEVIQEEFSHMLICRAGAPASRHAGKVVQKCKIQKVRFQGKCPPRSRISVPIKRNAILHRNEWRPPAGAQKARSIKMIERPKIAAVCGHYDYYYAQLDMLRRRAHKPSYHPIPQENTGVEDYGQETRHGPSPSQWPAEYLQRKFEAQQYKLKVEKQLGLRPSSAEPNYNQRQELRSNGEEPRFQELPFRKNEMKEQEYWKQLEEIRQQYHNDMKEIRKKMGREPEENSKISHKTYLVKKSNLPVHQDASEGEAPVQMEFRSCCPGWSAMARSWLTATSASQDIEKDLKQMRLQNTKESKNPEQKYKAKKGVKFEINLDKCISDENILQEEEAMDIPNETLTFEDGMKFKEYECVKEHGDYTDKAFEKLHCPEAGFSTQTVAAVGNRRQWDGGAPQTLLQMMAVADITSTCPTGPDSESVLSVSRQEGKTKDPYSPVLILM

[14] = target: G protein-coupled receptor kinase 5 (Homo sapiens) (UniProt P34947); test: Inhibition of GRK5 (unknown origin) at 1 uM
[15] = target: Casein kinase I isoform delta (Homo sapiens) (UniProt P48730); test: Inhibition of CK1D (unknown origin) at 1 uM
[16] = target: Phosphorylase b kinase gamma catalytic chain, liver/testis isoform (Homo sapiens) (UniProt P15735); test: Inhibition of PHKgamma2 (unknown origin) at 1 uM
[17] = target: cGMP-dependent protein kinase 1 (Homo sapiens) (UniProt Q13976); test: Inhibition of PKG1beta (unknown origin) at 1 uM
[18] = target: Casein kinase I isoform alpha (Homo sapiens) (UniProt P48729); test: Inhibition of CK1a1 (unknown origin) at 1 uM
[19] = target: Ephrin type-A receptor 8 (Homo sapiens) (UniProt P29322); test: Inhibition of EPHA8 (unknown origin) at 1 uM
[20] = target: Serine/threonine-protein kinase PLK1 (Homo sapiens) (UniProt P53350); test: Inhibition of PLK1 (unknown origin) at 1 uM
[21] = target: Serine/threonine-protein kinase MRCK alpha (Homo sapiens) (UniProt Q5VT25); test: Inhibition of MRCKalpha (unknown origin) at 1 uM
Serine/threonine-protein kinase MRCK alpha (Homo sapiens), sequence (Q5VT25 whole entry): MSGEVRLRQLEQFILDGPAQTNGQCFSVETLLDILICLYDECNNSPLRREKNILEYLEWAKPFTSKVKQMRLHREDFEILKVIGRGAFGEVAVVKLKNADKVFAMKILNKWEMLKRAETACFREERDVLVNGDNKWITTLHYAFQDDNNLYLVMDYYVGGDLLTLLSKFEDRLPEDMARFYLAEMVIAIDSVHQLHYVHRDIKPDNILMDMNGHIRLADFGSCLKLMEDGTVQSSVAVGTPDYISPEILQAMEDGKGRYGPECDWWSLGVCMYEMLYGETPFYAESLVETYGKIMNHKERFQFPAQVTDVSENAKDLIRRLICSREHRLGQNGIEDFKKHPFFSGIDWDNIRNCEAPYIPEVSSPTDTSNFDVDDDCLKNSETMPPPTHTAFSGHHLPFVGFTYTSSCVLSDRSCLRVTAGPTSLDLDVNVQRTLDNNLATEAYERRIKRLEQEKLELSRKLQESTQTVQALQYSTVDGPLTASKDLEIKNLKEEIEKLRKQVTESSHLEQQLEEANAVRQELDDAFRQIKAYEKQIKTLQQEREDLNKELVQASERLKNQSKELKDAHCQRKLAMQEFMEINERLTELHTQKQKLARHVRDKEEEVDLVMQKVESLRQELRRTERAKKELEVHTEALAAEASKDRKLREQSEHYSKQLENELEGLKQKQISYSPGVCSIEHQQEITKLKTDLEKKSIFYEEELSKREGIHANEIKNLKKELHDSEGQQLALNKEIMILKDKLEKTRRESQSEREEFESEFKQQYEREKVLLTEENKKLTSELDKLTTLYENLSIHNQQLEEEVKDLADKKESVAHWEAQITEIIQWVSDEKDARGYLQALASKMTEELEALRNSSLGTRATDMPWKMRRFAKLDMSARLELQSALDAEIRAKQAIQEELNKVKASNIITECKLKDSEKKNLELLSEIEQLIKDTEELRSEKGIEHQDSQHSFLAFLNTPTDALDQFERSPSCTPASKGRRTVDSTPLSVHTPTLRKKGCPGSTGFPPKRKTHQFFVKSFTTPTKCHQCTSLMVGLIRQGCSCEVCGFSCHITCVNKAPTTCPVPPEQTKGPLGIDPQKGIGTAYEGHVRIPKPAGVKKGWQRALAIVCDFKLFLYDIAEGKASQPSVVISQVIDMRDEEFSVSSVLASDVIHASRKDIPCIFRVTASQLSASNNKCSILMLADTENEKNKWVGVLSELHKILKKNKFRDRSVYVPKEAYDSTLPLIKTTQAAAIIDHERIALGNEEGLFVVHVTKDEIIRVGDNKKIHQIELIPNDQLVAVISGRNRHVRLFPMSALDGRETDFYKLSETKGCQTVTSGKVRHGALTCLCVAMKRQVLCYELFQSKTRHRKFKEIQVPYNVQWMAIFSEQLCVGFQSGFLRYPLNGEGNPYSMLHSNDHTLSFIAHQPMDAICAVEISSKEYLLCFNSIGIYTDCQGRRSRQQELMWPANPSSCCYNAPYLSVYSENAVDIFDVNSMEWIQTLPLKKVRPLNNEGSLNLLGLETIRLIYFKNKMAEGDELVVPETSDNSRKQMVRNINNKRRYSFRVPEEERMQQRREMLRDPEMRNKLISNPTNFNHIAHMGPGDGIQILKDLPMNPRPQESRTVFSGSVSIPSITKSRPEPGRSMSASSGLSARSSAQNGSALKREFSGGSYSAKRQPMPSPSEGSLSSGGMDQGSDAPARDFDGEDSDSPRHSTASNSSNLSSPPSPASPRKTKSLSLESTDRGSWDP

[22] = target: Mitogen-activated protein kinase kinase kinase 2 (Homo sapiens) (UniProt Q9Y2U5); test: Inhibition of MEKK2 (unknown origin) at 1 uM
Mitogen-activated protein kinase kinase kinase 2 (Homo sapiens), sequence (Q9Y2U5 whole entry): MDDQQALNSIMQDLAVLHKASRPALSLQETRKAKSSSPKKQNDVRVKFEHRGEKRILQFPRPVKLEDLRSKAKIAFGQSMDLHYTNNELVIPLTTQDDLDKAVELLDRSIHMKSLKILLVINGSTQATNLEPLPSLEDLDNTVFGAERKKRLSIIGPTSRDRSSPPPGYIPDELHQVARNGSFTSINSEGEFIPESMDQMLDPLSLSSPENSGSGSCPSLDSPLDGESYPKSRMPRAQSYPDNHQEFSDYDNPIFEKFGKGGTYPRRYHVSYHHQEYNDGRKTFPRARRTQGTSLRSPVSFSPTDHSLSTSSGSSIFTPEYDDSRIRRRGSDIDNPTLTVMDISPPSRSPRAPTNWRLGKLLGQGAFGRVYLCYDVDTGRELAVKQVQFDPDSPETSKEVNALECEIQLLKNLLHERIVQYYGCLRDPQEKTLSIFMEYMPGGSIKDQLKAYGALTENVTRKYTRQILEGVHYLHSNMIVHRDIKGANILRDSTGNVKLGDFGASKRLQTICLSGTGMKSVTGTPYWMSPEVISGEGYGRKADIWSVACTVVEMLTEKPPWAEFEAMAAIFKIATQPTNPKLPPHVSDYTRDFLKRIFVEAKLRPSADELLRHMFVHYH

[23] = target: Testis-specific serine/threonine-protein kinase 2 (Homo sapiens) (UniProt Q96PF2); test: Inhibition of TSSK2 (unknown origin) at 1 uM
[24] = target: Serine/threonine-protein kinase pim-1 (Homo sapiens) (UniProt P11309); test: Inhibition of PIM1 (unknown origin) at 1 uM
[25] = target: Misshapen-like kinase 1 (Homo sapiens) (UniProt Q8N4C8); test: Inhibition of MINK1 (unknown origin) at 1 uM
[26] = target: Protein kinase C gamma type (Homo sapiens) (UniProt P05129); test: Inhibition of PKCgamma (unknown origin)at 1 uM
[27] = target: Receptor-interacting serine/threonine-protein kinase 2 (Homo sapiens) (UniProt O43353); test: Inhibition of RIPK2 (unknown origin) at 1 uM
[28] = target: Tyrosine-protein kinase JAK2 (Homo sapiens) (UniProt O60674); test: Inhibition of JAK2 (unknown origin) at 1 uM
[29] = target: Serine/threonine-protein kinase 32C (Homo sapiens) (UniProt Q86UX6); test: Inhibition of STK32C (unknown origin) at 1 uM
[30] = target: Fibroblast growth factor receptor 1 (Homo sapiens) (UniProt P11362); test: Inhibition of FGFR1 (unknown origin) at 1 uM
[31] = target: CDK7/Cyclin H/MNAT1 (Homo sapiens) (UniProt P51946+P50613+P51948); test: Inhibition of CDK7/cyclin-H/MNAT1 (unknown origin) at 1 uM; type: protein-complex assay
[32] = target: Serine/threonine-protein kinase Sgk2 (Homo sapiens) (UniProt Q9HBY8); test: Inhibition of SGK2 (unknown origin) at 1 uM
[33] = target: Tyrosine-protein kinase TXK (Homo sapiens) (UniProt P42681); test: Inhibition of TXK (unknown origin) at 1 uM
Tyrosine-protein kinase TXK (Homo sapiens), sequence (P42681 whole entry): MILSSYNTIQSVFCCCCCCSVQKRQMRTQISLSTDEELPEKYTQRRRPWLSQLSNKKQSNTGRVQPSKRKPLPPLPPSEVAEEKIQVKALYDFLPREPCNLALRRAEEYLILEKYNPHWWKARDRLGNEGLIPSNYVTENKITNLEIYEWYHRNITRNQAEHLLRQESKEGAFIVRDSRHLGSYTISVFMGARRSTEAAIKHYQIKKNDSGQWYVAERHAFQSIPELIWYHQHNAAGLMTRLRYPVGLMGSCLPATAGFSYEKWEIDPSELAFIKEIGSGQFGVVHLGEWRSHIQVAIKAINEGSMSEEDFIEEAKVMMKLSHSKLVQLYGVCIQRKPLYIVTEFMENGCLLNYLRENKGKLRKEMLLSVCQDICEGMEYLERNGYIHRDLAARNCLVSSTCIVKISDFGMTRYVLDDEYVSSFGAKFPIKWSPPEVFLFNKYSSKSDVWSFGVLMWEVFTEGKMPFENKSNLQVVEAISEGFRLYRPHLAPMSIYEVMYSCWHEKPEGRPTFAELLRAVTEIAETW

HCT-116 = test: Antitumor immunity in BALB/c mouse xenografted with human HCT-116 cells assessed as increase in TNFalpha in serum by […]; type: functional, cell-based
[34] = target: CDK6/cyclin D3 (Homo sapiens) (UniProt P30281+Q00534); test: Inhibition of CDK6/cyclin-D3 (unknown origin) at 1 uM; type: protein-complex assay
[35] = Toxicity in rat assessed as maximum tolerated dose; type: organism-based; conditions: in vivo
[36] = target: Epithelial discoidin domain-containing receptor 1 (Homo sapiens) (UniProt Q08345); test: Inhibition of DDR1 (unknown origin) at 1 uM
[37] = target: Tyrosine-protein kinase ZAP-70 (Homo sapiens) (UniProt P43403); test: Inhibition of ZAP70 (unknown origin) at 1 uM
[38] = target: Testis-specific serine/threonine-protein kinase 6 (Homo sapiens) (UniProt Q9BXA6); test: Inhibition of SSTK (unknown origin) at 1 uM
Testis-specific serine/threonine-protein kinase 6 (Homo sapiens), sequence (Q9BXA6 whole entry): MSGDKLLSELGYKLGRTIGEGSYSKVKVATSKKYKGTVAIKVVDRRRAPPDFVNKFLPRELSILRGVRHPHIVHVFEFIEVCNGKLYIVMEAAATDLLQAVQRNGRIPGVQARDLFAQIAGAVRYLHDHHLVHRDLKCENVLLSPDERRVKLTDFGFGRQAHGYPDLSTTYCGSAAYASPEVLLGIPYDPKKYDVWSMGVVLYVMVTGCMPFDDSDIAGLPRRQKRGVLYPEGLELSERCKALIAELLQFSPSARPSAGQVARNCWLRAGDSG

[39] = Volume of distribution at steady state in Sprague-Dawley rat at 5 mg/kg, iv; type: ADME, organism-based; conditions: in vivo, read-out: Vdss
[40] = target: Serine/threonine-protein kinase TBK1 (Homo sapiens) (UniProt Q9UHD2); test: Inhibition of TBK1 (unknown origin) at 1 uM
[41] = target: TGF-beta receptor type-2 (Homo sapiens) (UniProt P37173); test: Inhibition of TGFBR2 (unknown origin) at 1 uM
[42] = target: Serine/threonine-protein kinase Nek3 (Homo sapiens) (UniProt P51956); test: Inhibition of NEK3 (unknown origin) at 1 uM
Serine/threonine-protein kinase Nek3 (Homo sapiens), sequence (P51956 whole entry): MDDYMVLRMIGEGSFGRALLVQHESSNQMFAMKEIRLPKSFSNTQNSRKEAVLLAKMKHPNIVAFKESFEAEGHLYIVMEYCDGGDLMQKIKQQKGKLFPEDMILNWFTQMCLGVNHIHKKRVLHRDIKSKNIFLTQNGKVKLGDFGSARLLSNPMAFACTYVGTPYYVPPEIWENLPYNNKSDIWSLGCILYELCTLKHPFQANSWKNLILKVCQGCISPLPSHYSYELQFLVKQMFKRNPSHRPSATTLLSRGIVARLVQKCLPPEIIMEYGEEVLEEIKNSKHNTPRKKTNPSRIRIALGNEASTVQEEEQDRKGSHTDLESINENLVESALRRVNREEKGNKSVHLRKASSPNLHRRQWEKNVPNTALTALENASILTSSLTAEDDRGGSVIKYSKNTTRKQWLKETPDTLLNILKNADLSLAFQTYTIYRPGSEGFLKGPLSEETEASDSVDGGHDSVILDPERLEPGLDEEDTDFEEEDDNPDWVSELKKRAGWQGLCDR

[43] = AUC (0 to infinity) in Sprague-Dawley rat at 5 mg/kg, iv; type: ADME, organism-based; design: time infinity, dose 5 mg/kg, route iv; conditions: Sprague-Dawley, in vivo
[44] = target: Serine/threonine-protein kinase WNK1 (Homo sapiens) (UniProt Q9H4A3); test: Inhibition of WNK1 (unknown origin) at 1 uM

For `OCCOCc1cn(CCNc2nonc2/C(=N/O)Nc2ccc(F)c(Br)c2)nn1`, the fraction unbound [1] was 0.0411, the inhibition [2] was “inactive” and the inhibition [3] was “inactive”. For the same compound, the inhibition [4] was “inactive”, the inhibition [5] was “inactive” and the inhibition [6] was “inactive”. For the same compound, the pIC50 [7] was 8.67, the inhibition [8] was “inactive” and the inhibition [9] was “inactive”. The inhibition [10] was “inactive”, the inhibition [11] was “inactive” and the k el [12] was 0.0003 s⁻¹. The inhibition [13] was “inactive”, the inhibition [14] was “inactive” and the inhibition [15] was “inactive”. The inhibition [16] was “inactive”, the inhibition [17] was “inactive” and the inhibition [18] was “inactive”. For the same compound, the inhibition [19] was “inactive”, the inhibition [20] was “inactive” and the inhibition [21] was “inactive”. The inhibition [22] was “inactive”, the inhibition [23] was “inactive” and the inhibition [24] was “inactive”. The inhibition [25] was “inactive”, the inhibition [26] was “inactive” and the inhibition [27] was “inactive”. For the same compound, the inhibition [28] was “inactive”, the inhibition [29] was “inactive” and the inhibition [30] was “inactive”. The inhibition [31] was “inactive”, the inhibition [32] was “inactive” and the inhibition [33] was “inactive”. For the same compound, the Activity (HCT-116) was “Active”, the inhibition [34] was “inactive” and the MTD [35] was 2 mg/kg. For the same compound, the inhibition [36] was “inactive”, the inhibition [37] was “inactive” and the inhibition [38] was “inactive”. The Vd [39] was 0.88 L/kg, the inhibition [40] was “inactive” and the inhibition [41] was “inactive”. For the same compound, the inhibition [42] was “inactive”, the AUC(0-inf) [43] was 3.05 µg·h/mL and the inhibition [44] was “inactive”.
